Paper PMC9433906, “Evaluation of the biotechnological potential of peptide Cupiennin 1a and analogs” (Frontiers in Microbiology, 2022)
Converted amounts (≈) assume the structure as drawn. Where a SMILES comes first, the peptide text is derived from it.

Key:
[1] = test system: K. pneumoniae (ATCC 13883); type: cell-based, Klebsiella pneumoniae; details: K. pneumoniae (ATCC13883); 5×10^5 CFU.ml^−1, Mueller-Hinton Broth, 37°C, 24 h, OD 595 nm, biological triplicates
Description: (§1) Susceptibility tests were performed using clinical isolates of Klebsiella pneumoniae carbapenemase (KPC 1410503) and methicillin-resistant S. aureus (MRSA 3730592). Tests were also performed with ATCC (American Type Culture Collection) isolates of K. pneumoniae (ATCC 13883) and S. aureus (ATCC 25923).
(§2) Two multidrug-resistant clinical isolates and two ATCC isolates were chosen to perform microbial susceptibility testing as models for studies with bacteria susceptible to antimicrobials found in the Gram-Positive and Gram-Negative groups of bacteria.
(§3) The broth microdilution method was performed according to the Clinical and Laboratory Standards Institute (CLSI) M07-A10 protocol to determine the Minimum Inhibitory Concentration (MIC; [Clinical Laboratory Standards Institute, 2015]). The assay was performed on 96-well microplates (TPP, United States), containing 5×10^5 CFU.ml^−1 of each tested bacterium per well and different peptide micromolar concentrations (Table 1) in a final volume of 100 μl of Mueller-Hinton Broth (MH). Negative control was represented by bacteria incubated in MH medium, while positive control was represented by culture incubated in MH medium with Amikacin. Plates were kept under agitation at 37°C in a BioTek spectrophotometer (PowerWaveTM HT Microplate Reader) with optical density (OD) readings at 595 nm every 30 min for 24 h. Inhibition results were analyzed using GraphPad Prism 8 software by comparing the OD from negative control wells (100%) to those containing peptides. All tests were performed in biological triplicates.

RAW 264.7 cells = assay: MTT cytotoxicity test against RAW 264.7; type: cell-based, mice; details: 24 h
Description: The cell line RAW 264.7 was obtained from the Rio de Janeiro Cell Bank (CR108). These cells are macrophages derived from induced tumors in male BALB/c mice infected with Abelson’s murine leukemia virus ([Raschke et al., 1978]). RAW264.7 cells were grown in DMEM medium (Dulbecco’s Modified Eagle’s medium, composed of CaCl2 (anhydrous) 200 mg.ml^−1, Fe(NO3).9H2O 0.1 mg.ml^−1, KCL 400 mg.ml^−1, MgSO4 (anhydrous) 97.67 mg.ml^−1, NaCL 6.400 mg.ml^−1, NaH2PO4.H2O 125 mg.ml^−1) supplemented with 10% (v/v) of bovine fetal serum, 0.5% (v/v) of DMEM amino acid solution, 0.05% (w/v) gentamicin, 0.5% (w/v) of L-glutamine, and 0.5% (w/v) of penicillin/streptomycin (1,000 U.ml^−1) in an incubator containing 5% CO2, at 37°C, and 95% humidity ([Raschke et al., 1978]; [Nguyen et al., 2017]).
RAW 264.7 cells were seeded in 96-well plates, at a concentration of 10^4 cells/well, and incubated for 24 h. Each peptide was subsequently added at different micromolar concentrations (Table 1). Positive control was performed by cells in culture medium and negative control, as cell culture in lysis solution (10 mM Tris, 1 mM EDTA, and 0.1% Triton X-100, pH 7.4).
Cell viability analyses were performed in technical and biological replicates, and readings were obtained after 24 h of contact with peptides. At the end of the incubation period, MTT (Sigma-Aldrich, United States) was used to assess the ability of living cells to reduce salt 3-[4,5-dimethylthiazole-2-yl]-2,5-diphenyltetrazolium bromide for formazan production. Plates were read at 570 ηm ([Mosmann, 1983]) and results were expressed in the percentage of living cells. The results were analyzed using GraphPad Prism 8 software where a One-Way ANOVA statistical test was followed by Bonferroni’s multiple comparisons test.

S. aureus (ATCC 25923) = type: cell-based, Staphylococcus aureus; details: S. aureus (ATCC25923); 5×10^5 CFU.ml^−1, Mueller-Hinton Broth, 37°C, 24 h, OD 595 nm, biological triplicates
Description: as §1, §2, §3

[2] = test system: methicillin-resistant S. aureus (MRSA 3730592); type: cell-based, Staphylococcus aureus; details: Methicillin-Resistant S. aureus—MRSA clinical isolate 3730592; 5×10^5 CFU.ml^−1, Mueller-Hinton Broth, 37°C, 24 h, OD 595 nm, biological triplicates
Description: as §1, §2, §3

[3] = test system: C. parapsilosis (ATCC22019); assay: Broth microdilution MIC (CLSI M27-A3 with modifications); type: cell-based, Candida parapsilosis; details: 2.5 × 10^3 CFU.ml^−1, Sabouraud medium, 24 h at 30°C, absorbance 595 nm
Description: The broth microdilution method was performed according to the Clinical and Laboratory Standards Institute Guideline M27-A3 with modifications to determine the Minimum Inhibitory Concentration (MIC; [Clinical Laboratory Standards Institute, 2008]).
Initially, the fungus C. parapsilosis (ATCC22019) was grown in a Petri dish containing Sabouraud Dextrose Agar medium (Dextrose 40 g/L; Peptic digestion of animal tissue 5.0 g.L^−1; and Agar 15 g.L^−1) for 48 h. Subsequently, a pre-inoculum was performed from a yeast colony that was placed in 10 ml of liquid Sabouraud medium and incubated for 16 h at 28°C, with a constant rotation of 200 rpm. After the incubation period, 2.5 × 10^3 CFU.ml^−1 of fungus per well was incubated with different peptide micromolar concentrations (Table 1) to assess the MIC for each peptide.
Fungal cells incubated with Sabouraud medium were used as negative control, while positive control was represented by fungal cells incubated in Sabouraud medium and amphotericin B (10 μM). Subsequently, plates were incubated for 24 h at 30°C. After this period, the absorbance was read (595 nm) in a BioTek spectrophotometer (PowerWaveTM HT Microplate Reader), and data of antifungal activity with percentage of inhibition of peptides were plotted in GraphPad Prism 8 Software.

[4] = test system: Spodoptera frugiperda (SF21) cells; assay: In vitro test against insect cells (MTT); type: cell-based; details: lowest concentration tested (1 μM), 24 h
Description: To evaluate the ability of the peptides to cause lysis and morphological changes in insect cells ([Dutra, 2019]; Patent: BR 102022 006138 6) as a first screening of the insecticidal activity of the peptides, in this work, the Spodoptera IPLB-SF-21AE _LVI-Cenargen cell line ([Vaughn et al., 1977]) was used and different concentrations of the peptides were added to the culture medium.
Cells were maintained at 27°C in TNMFH medium (Grace’s insect medium supplemented with lactalbumin hydrolyzate and yeastolate), supplemented with 10% (v/v) fetal bovine serum (Sigma-Aldrich; [Castro et al., 2006]).
Cell cultivation was carried out in 10 ml culture bottles, model K11-1050 25cm^2, with 5 ml of culture medium per bottle. For the assays, the SF21 cells were grown in TNMFH medium, added 10% (v/v) of bovine fetal serum, and distributed in plates of 96 wells at the concentration of 2×10^4 cells per well, after counting was performed in the Neubauer chamber. Cell suspension was distributed in a volume of 100 μl per well. Peptides were diluted in TNMFH medium and 100 μl of medium with peptide was added, obtaining concentrations of 10, 5, and 1 μM, reaching the volume of 200 μl at the final concentrations of reaction per well. Cells were placed in incubation at 27°C, for 24 h.
After 24 h, the cells were analyzed for their modifications, morphological alterations, turbidity of the medium, formation of clumps, and/or lysis in the presence of peptides, by observation under optical microscopy (Nikon Eclipse TS100) with 20× and 40× magnification. Characteristics that could represent cell death or cell dysfunction caused by the peptides were observed compared to control cells. Cells were evaluated by cell viability using the MTT test 3-[4,5-dimethylthiazole-2-yl]-2,5-diphenyltetrazolium bromide 0.5 mg.ml^−1 (Sigma-Aldrich). To perform the test, the cell culture medium was discarded, and we added 100 μl of new medium. Ten μl of MTT was added to each well and incubated for 4 h, with the plates protected from light. After 4 h, we added 100 μl of DMSO to each well to dissolve the formazan crystals, and the reading in the microplate reader ([Riss et al., 2016]) was then performed. The results were analyzed using GraphPad Prism 8 software, where a One-Way ANOVA statistical test was followed by Bonferroni’s multiple comparisons test.

[5] = test system: Klebsiella pneumoniae carbapenemase (KPC 1410503); type: cell-based; details: K. pneumoniae carbapenemase—KPC clinical isolate 1410503; 5×10^5 CFU.ml^−1, Mueller-Hinton Broth, 37°C, 24 h, OD 595 nm, biological triplicates; NE = MIC value not found
Description: as §1, §2, §3

`CC(C)C[C@H](NC(=O)[C@H](C)NC(=O)CNC(=O)[C@H](Cc1ccccc1)NC(=O)CN)C(=O)N[C@@H](Cc1ccccc1)C(=O)N[C@@H](CCCCN)C(=O)N[C@@H](Cc1ccccc1)C(=O)N[C@@H](CC(C)C)C(=O)N[C@@H](C)C(=O)N[C@@H](CCCCN)C(=O)N[C@@H](CCCCN)C(=O)N[C@H](C(=O)N[C@@H](C)C(=O)N[C@@H](CCCCN)C(=O)N[C@H](C(=O)N[C@H](C(=O)N[C@@H](C)C(=O)N[C@@H](CCCCN)C(N)=O)C(C)C)[C@@H](C)O)C(C)C` [Peptide R1a] (H-GFGALFKFLAKKVAKTVAK-NH2) was tested, and the “Minimum inhibitory concentration (MIC)” value [1] was 31.63 µM (≈ 64 µg/mL), the “viable cells (RAW264.7) in the MIC found for MRSA, S. aureus ATCC25923 and C. parapsilosis ATCC22019” value (RAW 264.7 cells; at the MIC of R1a for these strains (15.81 μM in Table 3)) was 63% and the “toxicity on RAW264.7 macrophages in the concentration range of 33.77 μM (in words)” value (RAW 264.7 cells; concentration range of 33.77 μM) was “high toxicity”. For the same molecule, the “Minimum inhibitory concentration (MIC)” value (S. aureus (ATCC 25923)) was 15.81 µM (≈ 32 µg/mL), the “Minimum inhibitory concentration (MIC)” value [2] was 15.81 µM (≈ 32 µg/mL) and the “Minimum inhibitory concentration (MIC)” value [3] was 15.81 µM (≈ 32 µg/mL).

In the case of `CC(C)C[C@H](NC(=O)[C@H](C)NC(=O)CNC(=O)[C@H](Cc1ccccc1)NC(=O)CN)C(=O)N[C@@H](Cc1ccccc1)C(=O)N[C@@H](CCCCN)C(=O)N[C@@H](Cc1ccccc1)C(=O)N[C@@H](CC(C)C)C(=O)N[C@@H](C)C(=O)N[C@@H](CCCCN)C(=O)N[C@@H](CCCCN)C(=O)N[C@H](C(=O)N[C@@H](C)C(=O)N[C@@H](CCCCN)C(=O)N[C@@H](C)C(=O)N[C@H](C(=O)N[C@@H](C)C(N)=O)C(C)C)C(C)C` [Peptide R2b] (H-GFGALFKFLAKKVAKAVA-NH2), the “Minimum inhibitory concentration (MIC)” value [1] is reported as 17.15 µM (≈ 32 µg/mL), the “cell viability (SF21)” value [4] is reported as “below 50%” and the “cell viability (RAW264.7) in the MIC found for MRSA3730592, S. aureus ATCC25923, K. pneumoniae ATCC13883” value (RAW 264.7 cells; at the MIC of R2b for these strains (17.15 μM in Table 3)) is reported as “above 50%”. The “toxicity against RAW264.7 cells (in words)” value (RAW 264.7 cells; tested concentrations of Table 1 (128–16 μg.ml^−1)) was “high toxicity”, the “Minimum inhibitory concentration (MIC)” value (S. aureus (ATCC 25923)) was 17.15 µM (≈ 32 µg/mL) and the “Minimum inhibitory concentration (MIC)” value [2] was 17.15 µM (≈ 32 µg/mL). For the same molecule, the “Minimum inhibitory concentration (MIC)” value [3] was 34.31 µM (≈ 64 µg/mL) and the “Minimum inhibitory concentration (MIC)” value [5] was 34.31 µM (≈ 64 µg/mL).

With `CC(C)C[C@H](NC(=O)[C@H](C)NC(=O)CNC(=O)[C@H](Cc1ccccc1)NC(=O)CN)C(=O)N[C@@H](Cc1ccccc1)C(=O)N[C@@H](CCCCN)C(=O)N[C@@H](Cc1ccccc1)C(=O)N[C@@H](CC(C)C)C(=O)N[C@@H](C)C(=O)N[C@@H](CCCCN)C(=O)N[C@@H](CCCCN)C(=O)N[C@H](C(=O)N[C@@H](C)C(=O)N[C@@H](CCCCN)C(=O)N[C@H](C(=O)N[C@H](C(=O)N[C@@H](C)C(N)=O)C(C)C)[C@@H](C)O)C(C)C` [Peptide R1b] (H-GFGALFKFLAKKVAKTVA-NH2) the “Minimum inhibitory concentration (MIC)” value [1] was 33.77 µM (≈ 64 µg/mL), the “viable cells (RAW264.7)” value (RAW 264.7 cells; 33.77 μM) was 58% and the “toxicity to RAW264.7 cells at the MIC concentration (in words)” value (RAW 264.7 cells; R1b: MIC found for KPC1410503, R3b: MIC at high concentrations against all tested microorganisms) was “high toxicity”. For the same molecule, the “Minimum inhibitory concentration (MIC)” value (S. aureus (ATCC 25923)) was 33.77 µM (≈ 64 µg/mL), the “Minimum inhibitory concentration (MIC)” value [2] was 33.77 µM (≈ 64 µg/mL) and the “Minimum inhibitory concentration (MIC)” value [3] was 16.88 µM (≈ 32 µg/mL). The “Minimum inhibitory concentration (MIC)” value [5] was 67.54 µM (≈ 128 µg/mL).
